Experimental findings from ChEMBL document CHEMBL5052850, “Compounds and methods targeting qsox1” (2021) are described below.

The target in one experiment is T1, Sulfhydryl oxidase 1 (Homo sapiens, UniProt O00391).
T1 sequence (O00391 whole entry): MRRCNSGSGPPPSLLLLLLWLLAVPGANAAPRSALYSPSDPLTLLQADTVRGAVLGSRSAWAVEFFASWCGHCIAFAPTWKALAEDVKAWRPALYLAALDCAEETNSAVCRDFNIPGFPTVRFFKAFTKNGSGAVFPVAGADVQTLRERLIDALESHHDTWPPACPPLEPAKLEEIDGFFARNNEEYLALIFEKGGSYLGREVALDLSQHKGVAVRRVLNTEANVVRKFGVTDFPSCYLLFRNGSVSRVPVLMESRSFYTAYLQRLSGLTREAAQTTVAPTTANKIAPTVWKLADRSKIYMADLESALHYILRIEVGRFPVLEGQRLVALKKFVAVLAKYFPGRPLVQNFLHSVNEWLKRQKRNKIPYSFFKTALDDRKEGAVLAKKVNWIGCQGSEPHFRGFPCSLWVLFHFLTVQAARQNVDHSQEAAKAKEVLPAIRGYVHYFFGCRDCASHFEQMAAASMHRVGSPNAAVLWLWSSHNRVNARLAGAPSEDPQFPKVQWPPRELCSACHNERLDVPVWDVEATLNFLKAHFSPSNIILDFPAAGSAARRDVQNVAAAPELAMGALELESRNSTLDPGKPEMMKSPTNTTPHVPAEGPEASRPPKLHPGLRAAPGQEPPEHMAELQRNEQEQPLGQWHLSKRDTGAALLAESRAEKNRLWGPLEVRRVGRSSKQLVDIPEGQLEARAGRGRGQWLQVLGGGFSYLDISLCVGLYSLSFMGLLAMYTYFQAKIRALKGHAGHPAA
Put plainly: Binding affinity towards QSOX1 (unknown origin) measured by microscale thermophoresis assay. A general note: MST reads how a fluorescent partner responds to local heating, with and without ligand.

Experiment [1] has as its target T2, Sulfhydryl oxidase 1 (Homo sapiens) (UniProt O00391).
T2 sequence (whole entry): T1 sequence (O00391 whole entry)
As to the kind of experiment: Inhibition of QSOX1 (unknown origin) at 6.25 to 50 uM relative to control. The note with it: dose 6.25-50 µM.

The subject of experiment [2] is 786-0. As to the kind of experiment: Antitumor activity in human 786-0 cells xenografted immunodeficient mouse assessed as reduction in tumor growth at 14 mg/kg/day, po. Particulars: 786-0, po, read-out: TGI. Format: functional.
In experiment [3] the test system is MDA-MB-231. As to the kind of experiment: Antitumor activity in human MDA-MB-231-Luc cells xenografted immunodeficient mouse assessed as reduction in lung metastasis at 100 mg/kg, po administered for 28 days. Format: functional. Also noted: scale not given: the % may be the effect or the level left. Particulars: time 28 day. In general terms: Xenograft models place foreign cells or tissue in a host animal.

Experiment [4] concerns MDA-MB-231. Put plainly: Anticancer activity against human MDA-MB-231 cells at 156.25 to 1250 uM assessed as suppression of tumor cell tendrils spreading formation measured by 3D tumor cell spheroid assay. The note with it: dose 156.25-1250 µM. Format: functional, cell-based.
A further experiment deals with RCJ-41T2. Put plainly: Antiinvasive activity against human RCJ-41T2 cells at 156.25 to 1250 uM measured spheroid invasion assay. Particulars: dose 156.25-1250 µM. Format: functional, cell-based.
The test system of experiment [5] is 786-0. Put plainly: Antiinvasive activity against human 786-0 cells measured spheroid invasion assay. In kind it is functional, cell-based.
The subject of a further experiment is MIA PaCa-2. As to the kind of experiment: Antiinvasive activity against human MIA PaCa-2 cells measured spheroid invasion assay. In kind it is functional, cell-based.
For a further experiment, the system named is MCF-10A. Put plainly: Antiinvasive activity against human MCF-10A cells measured spheroid invasion assay. Format: functional, cell-based.
The test system of a further experiment is UOK117. As to the kind of experiment: Antitumor activity in human UOK117 cells xenografted nude mouse assessed as suppression of tumor growth. Format: functional, cell-based.

The source made the active and inactive calls. The calls are words filed in the database; no cut-off is given here.

The compound `COc1cccc(C(=O)Nc2ccc(N3CCCC3)cc2)c1` came in with a Kd on Sulfhydryl oxidase 1 of 20 µM. Besides, the inhibition result in experiment [1] is “Active”. In addition, in the experiment with 786-0 [2], the inhibition in vivo at 14 mg/kg/day was determined as 51%. For the same compound, the Activity with MDA-MB-231 [3] was 76%. Besides, the outcome in the experiment with MDA-MB-231 [4], in the experiment on RCJ-41T2, in the experiment on 786-0 [5], in the experiment with MIA PaCa-2, with MCF-10A and in the experiment on UOK117 was Active.

By Kd is commonly meant the equilibrium constant for the complex coming apart.
